The source of these data is patent publication US20240307308A1, “PORPHYRIN NANOVESICLE WITH FATTY ACID CONJUGATE” (priority 2021, published 2024).

“Also recorded” adds a separate entry of the source.

One series has as its system KB cells. In words: Intracellular uptake by fluorescence microscopy. In kind it is cell-based. The settings on record: 1 mM (1000 μM) free EDTA with 5 μM PS. As for the experimental part: Fluorescence microscopy method was firstly used to track particles' intracellular uptake on KB cells that cultured in RPMI-1640 media with 10% FBS. Briefly, 5×10^4 cells/well were seeded in eight-well chamber slides 24 h prior to incubation. Cells were incubated with NPS and PS at porphyrin concentration of 1 μM for 4 h at 37° C., rinsed with PBS for 3 times and then re-culture in fresh media. Olympus FV1000 laser fluorescence scanning microscopy (Olympus, Tokyo, Japan) was conducted to monitor the porphyrin fluorescence change of the cells with time (immediately and at 3 h and 18 h after removing the incubation medium). The fluorescence microscopy method was also used to examine eNPS uptake in KB epithelium cells versus normal fibroblast cells (NFB)

For series [1] the following is noted: doses of 1000 mg/kg; cited from earlier work.

`O=C(O)CN(CCN(CC(=O)O)CC(=O)O)CC(=O)O` [free EDTA, Ethylenediaminetetraacetic acid]: in the series on KB cells, the “Effect of co-incubated free EDTA on PS uptake” value was “negligible enhancement; also recorded: negligible effect”.
Consider “pyropheophorbide-lipid [porphyrin-lipid]”, for which the Acute toxicity entry in series [1] is “minimal acute toxicities”.
